Laboratory results reported in patent US20250388574A1, “HETEROCYCLIC COMPOUNDS AS TRIGGERING RECEPTOR EXPRESSED ON MYELOID CELLS 2 AGONISTS AND METHODS OF USE” (AMGEN INC., priority 2020, published 2025).

Molecular target: hTREM2 (Homo sapiens, UniProt Q9NZC2)
Assay: Phospho-Syk AlphaScreen/AlphaLISA assay in TREM2 and DAP12 overexpressing HEK293 cells (Example A1)
Assay type: cell-based
Set-up: expressed in transfected cells
Conditions: HEK293 cells; for EC50: read-out: hTREM2 EC50
Summary of the method: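 Agonism read as Syk phosphorylation: compounds in 1% DMSO applied 45 min at room temperature to TREM2/DAP12-HEK293 cells after 20 h culture. Lysis buffer with phosphatase inhibitors and anti-phospho-Syk plus biotinylated anti-Syk antibodies, then AlphaLISA beads (680 nm excitation); percent of control computed from antibody/isotype wells, curves fitted sigmoidally.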

hTREM2, sequence (Q9NZC2 19-230): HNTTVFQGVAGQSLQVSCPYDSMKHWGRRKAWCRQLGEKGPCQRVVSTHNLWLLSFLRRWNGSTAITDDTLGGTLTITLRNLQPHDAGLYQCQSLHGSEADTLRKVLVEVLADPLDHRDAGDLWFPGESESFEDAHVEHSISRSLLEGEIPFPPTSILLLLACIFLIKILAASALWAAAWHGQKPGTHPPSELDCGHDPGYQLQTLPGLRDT
hTREM2, sequence (O43914 22-113 partner): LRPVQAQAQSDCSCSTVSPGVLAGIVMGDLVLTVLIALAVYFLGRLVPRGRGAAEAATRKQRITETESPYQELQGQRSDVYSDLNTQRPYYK

Row | Structure (SMILES) | Emax | EC50
1 | Cc1nc2cc(N3CCC(C(F)(F)F)C3)nc(-c3ccc(Cl)cc3F)c2c(=O)n1C (centres unmarked) [Example 119, 5-(4-chloro-2-fluorophenyl)-2,3-dimethyl-7-(3-(trifluoromethyl)-1-pyrrolidinyl)pyrido[4,3-d]pyrimidin-4(3H)-one] | +++ (Emax>200 and ≤300) | 50 to 500 nM
2 | Cc1nc2cc(N3CCO[C@H](c4ccnc(OCC(F)(F)F)c4)C3)nc(-c3ccc(Cl)cc3F)c2c(=O)n1C (single isomer, unassigned) [Example 95] | ++++ (Emax>300) | 50 to 500 nM
3 | CCn1c(C)nc2cc(N3CCO[C@@H](c4cnn(C5CC5)c4)C3)nc(-c3ccc(F)cc3F)c2c1=O [Example 151, 7-((2S)-2-(1-cyclopropyl-1H-pyrazol-4-yl)-4-morpholinyl)-5-(2,4-difluorophenyl)-3-ethyl-2-methylpyrido[4,3-d]pyrimidin-4(3H)-one] | +++ (Emax>200 and ≤300) | < 50 nM
4 | Cc1nc2cc(N3CCC[C@H](c4ccncc4)C3)nc(-c3ccc(Cl)cc3F)c2c(=O)n1C [Example 233, (R)-5-(4-chloro-2-fluorophenyl)-2,3-dimethyl-7-(3-(pyridin-4-yl)piperidin-1-yl)pyrido[4,3-d]pyrimidin-4(3H)-one] | ++++ (Emax>300) | 50 to 500 nM
5 | COc1cc([C@@H]2C[C@H](c3cc4nc(C)n(C)c(=O)c4c(-c4ccc(Cl)cc4F)n3)CCO2)ccn1 [Example 267, 5-(4-chloro-2-fluorophenyl)-7-((2S,4R)-2-(2-methoxypyridin-4-yl)tetrahydro-2H-pyran-4-yl)-2,3-dimethylpyrido[4,3-d]pyrimidin-4(3H)-one] | +++ (Emax>200 and ≤300) | < 50 nM
6 | Cc1nc2cc(N3CCOC(C)(c4cnn(C)c4)C3)nc(-c3ccc(Cl)cc3F)c2c(=O)n1C (centres unmarked) [Example 31, 5-(4-chloro-2-fluorophenyl)-2,3-dimethyl-7-(2-methyl-2-(1-methyl-1H-pyrazol-4-yl)-4-morpholinyl)pyrido[4,3-d]pyrimidin-4(3H)-one] | ++++ (Emax>300) | 3000 to 100000 nM
7 | Cc1nc2cc(N3CC[C@H](C(F)F)C3)nc(-c3ccc(Cl)cc3F)c2c(=O)n1C [Example 259, (S)-5-(4-chloro-2-fluorophenyl)-7-(3-(difluoromethyl)pyrrolidin-1-yl)-2,3-dimethylpyrido[4,3-d]pyrimidin-4(3H)-one] | ++ (Emax>100 and ≤200) | 3000 to 100000 nM
8 | CCCn1c(C)nc2cc(N3CCO[C@@H](C(F)(F)F)C3)nc(-c3ccc(Cl)cc3F)c2c1=O [Example 179, (R)-5-(4-chloro-2-fluorophenyl)-2-methyl-3-propyl-7-(2-(trifluoromethyl)morpholino)pyrido[4,3-d]pyrimidin-4(3H)-one] | ++++ (Emax>300) | 500 to 3000 nM
9 | Cc1nc2cc(N3CCO[C@@H](c4cnn(C(F)CO)c4)C3)nc(-c3ccc(Cl)cc3F)c2c(=O)n1C (stereo partly drawn) [Example 130, 5-(4-chloro-2-fluorophenyl)-7-((2S)-2-(1-(1-fluoro-2-hydroxyethyl)-1H-pyrazol-4-yl)-4-morpholinyl)-2,3-dimethylpyrido[4,3-d]pyrimidin-4(3H)-one] |  | 50 to 500 nM
10 | Cc1nc2cc(N3C[C@@H](C)O[C@H](C4CC4)C3)nc(-c3ccc(Cl)cc3F)c2c(=O)n1C (single isomer, unassigned) [Example 36] | +++ (Emax>200 and ≤300) | 3000 to 100000 nM
11 | Cc1nc2cc(N3CCO[C@@H](c4cnn(C)c4)C3)nc(-c3ccc(Cl)cc3F)c2c(=O)n1C1CC1 [Example 20, 5-(4-chloro-2-fluorophenyl)-3-cyclopropyl-2-methyl-7-((2S)-2-(1-methyl-1H-pyrazol-4-yl)-4-morpholinyl)pyrido[4,3-d]pyrimidin-4(3H)-one] | ++++ (Emax>300) | 50 to 500 nM
12 | Cc1nc2cc(N3CCO[C@H](c4cnn(C)c4)C3)nc(-c3ccc(Cl)cn3)c2c(=O)n1C [Example 211, (R)-5-(5-chloropyridin-2-yl)-2,3-dimethyl-7-(2-(1-methyl-1H-pyrazol-4-yl)morpholino)pyrido[4,3-d]pyrimidin-4(3H)-one] | +++ (Emax>200 and ≤300) | 3000 to 100000 nM
13 | Cc1c([C@H]2CN(c3cc4nc(C)n(C)c(=O)c4c(-c4ccc(Cl)cc4F)n3)CCO2)cnn1C [Example 262, (S)-5-(4-chloro-2-fluorophenyl)-7-(2-(1,5-dimethyl-1H-pyrazol-4-yl)morpholino)-2,3-dimethylpyrido[4,3-d]pyrimidin-4(3H)-one] | +++ (Emax>200 and ≤300) | 500 to 3000 nM
14 | Cc1nc2cc(N3C[C@@H](C)O[C@H](c4ccsc4)C3)nc(-c3ccc(Cl)cc3F)c2c(=O)n1C (single isomer, unassigned) [Example 74] | + (Emax>45 and ≤100) | 500 to 3000 nM
15 | Cc1nc2cc(N3CCO[C@@H](c4cnn(C)c4)C3)nc(-c3ccc(Cl)c(F)c3)c2c(=O)n1C [Example 7, 5-(4-chloro-3-fluorophenyl)-2,3-dimethyl-7-((2S)-2-(1-methyl-1H-pyrazol-4-yl)-4-morpholinyl)pyrido[4,3-d]pyrimidin-4(3H)-one] | ++++ (Emax>300) | 50 to 500 nM
16 | Cc1nc2cc(N3CCO[C@@H](c4cccc(C(F)(F)F)c4)C3)nc(-c3ccc(Cl)cc3F)c2c(=O)n1C (single isomer, unassigned) [Example 91] | ++ (Emax>100 and ≤200) | 500 to 3000 nM
17 | CCn1cc([C@@H]2CN(c3cc4nc(C)n(C)c(=O)c4c(-c4ccc(Cl)cc4F)n3)CCO2)cn1 [Example 197, (R)-5-(4-chloro-2-fluorophenyl)-7-(2-(1-ethyl-1H-pyrazol-4-yl)morpholino)-2,3-dimethylpyrido[4,3-d]pyrimidin-4(3H)-one] | ++++ (Emax>300) | 50 to 500 nM
18 | Cc1nc2cc(N3CCCC(C)(c4ccccc4)C3)nc(-c3ccc(Cl)cc3F)c2c(=O)n1C (centres unmarked) [Example 103, 5-(4-chloro-2-fluorophenyl)-2,3-dimethyl-7-(3-methyl-3-phenyl-1-piperidinyl)pyrido[4,3-d]pyrimidin-4(3H)-one] | + (Emax>45 and ≤100) | 3000 to 100000 nM
19 | Cc1nc2cc(N3CCC[C@@H](c4ccncc4)C3)nc(-c3ccc(Cl)cc3F)c2c(=O)n1C (single isomer, unassigned) [Example 113] | ++++ (Emax>300) | 50 to 500 nM
20 | Cc1nc2cc(N3CCO[C@H](c4cnn(C)c4)C3)nc(-c3ccccc3F)c2c(=O)n1C [Example 218, (R)-5-(2-fluorophenyl)-2,3-dimethyl-7-(2-(1-methyl-1H-pyrazol-4-yl)morpholino)pyrido[4,3-d]pyrimidin-4(3H)-one] | +++ (Emax>200 and ≤300) | 3000 to 100000 nM
21 | Cc1csc(C2CN(c3cc4nc(C)n(C)c(=O)c4c(-c4ccc(Cl)cc4F)n3)CCO2)n1 (centres unmarked) [Example 75, 5-(4-chloro-2-fluorophenyl)-2,3-dimethyl-7-(2-(4-methyl-1,3-thiazol-2-yl)-4-morpholinyl)pyrido[4,3-d]pyrimidin-4(3H)-one] | ++++ (Emax>300) | 50 to 500 nM
22 | CCn1c(C)nc2cc(N3CCO[C@@H](c4ccnc(C)c4)C3)nc(-c3ccc(F)cc3F)c2c1=O [Example 150, 5-(2,4-difluorophenyl)-3-ethyl-2-methyl-7-((2S)-2-(2-methyl-4-pyridinyl)-4-morpholinyl)pyrido[4,3-d]pyrimidin-4(3H)-one] | +++ (Emax>200 and ≤300) | < 50 nM
23 | Cc1nc2cc(N3CCO[C@@H](c4cnn(C)c4)C3)nc(-c3ccc(C(F)(F)F)nc3)c2c(=O)n1C [Example 17, 2,3-dimethyl-7-((2S)-2-(1-methyl-1H-pyrazol-yl)-4-morpholinyl)-5-(6-(trifluoromethyl)-3-pyridinyl)pyrido[4,3-d]pyrimidin-4(3H)-one] |  | 500 to 3000 nM
24 | COc1ccc([C@@H]2CN(c3cc4nc(C)n(C)c(=O)c4c(-c4ccc(Cl)cc4F)n3)CCO2)cc1 [Example 237, (R)-5-(4-chloro-2-fluorophenyl)-7-(2-(4-methoxyphenyl)morpholino)-2,3-dimethylpyrido[4,3-d]pyrimidin-4(3H)-one] | ++ (Emax>100 and ≤200) | 50 to 500 nM
25 | Cc1nc2cc(N3CCOC(c4cncnc4)C3)nc(-c3ccc(Cl)cc3F)c2c(=O)n1C (centres unmarked) [Example 51, 5-(4-chloro-2-fluorophenyl)-2,3-dimethyl-7-(2-(5-pyrimidinyl)-4-morpholinyl)pyrido[4,3-d]pyrimidin-4(3H)-one] | +++ (Emax>200 and ≤300) | 50 to 500 nM
26 | Cc1nc2cc(N3CCO[C@@H](c4cnn(C5CN(C)C5)c4)C3)nc(-c3ccc(Cl)cc3F)c2c(=O)n1C [Example 138, 5-(4-chloro-2-fluorophenyl)-2,3-dimethyl-7-((2S)-2-(1-(1-methyl-3-azetidinyl)-1H-pyrazol-4-yl)-4-morpholinyl)pyrido[4,3-d]pyrimidin-4(3H)-one] | +++ (Emax>200 and ≤300) | 50 to 500 nM
27 | CCCn1c(C)nc2cc(N3CCO[C@H](C(F)F)C3)nc(-c3ccc(Cl)cc3F)c2c1=O [Example 183, (S)-5-(4-chloro-2-fluorophenyl)-7-(2-(difluoromethyl)morpholino)-2-methyl-3-propylpyrido[4,3-d]pyrimidin-4(3H)-one] | +++ (Emax>200 and ≤300) | 500 to 3000 nM
28 | Cc1ccc(C2CN(c3cc4nc(C)n(C)c(=O)c4c(-c4ccc(Cl)cc4F)n3)CCO2)cn1 (centres unmarked) [Example 60, 5-(4-chloro-2-fluorophenyl)-2,3-dimethyl-7-(2-(6-methyl-3-pyridinyl)-4-morpholinyl)pyrido[4,3-d]pyrimidin-4(3H)-one] | ++++ (Emax>300) | 50 to 500 nM
29 | Cc1nc2cc(N3CCO[C@@H](c4cnn(C(C)C)c4)C3)nc(-c3ccc(Cl)cc3F)c2c(=O)n1C [Example 123, 5-(4-chloro-2-fluorophenyl)-2,3-dimethyl-7-((2S)-2-(1-(2-propanyl)-1H-pyrazol-4-yl)-4-morpholinyl)pyrido[4,3-d]pyrimidin-4(3H)-one] | ++++ (Emax>300) | < 50 nM
